Patent US20030040504A1, “Ectoparasiticidal compositions and methods of their use” (priority 2001, published 2003)

Assays:
[1] = at 60° C.; cited from earlier work
[2] = cited from earlier work
[3] = rat, guinea pig, rabbit, hamster, dog or human; cited from earlier work
[4] = tested on: head lice collected from Bristol school children; experiment: Filter paper disk test of malathion, OVIDE lotion and Composition II on resistant head lice (Example 1); assay type: in vivo, head lice (Pediculus capitis); details: for percentage activity of the lice, 100 being all alive, 0 being all dead: impregnated filter paper disk
Method: Following approval by the South and West Hospital research ethics committee, three primary schools in south Bristol, U.K. were contacted and arrangements were made with the headmaster/mistress and the school nurse to visit the schools and comb the hair of every child who has parental permission. Head lice were collected from children between 4 years and 11 years of age using plastic louse detector combs.
Head lice were placed and maintained at about 30° C. and about 70% relative humidity in a portable incubator for up to about two hours before being placed on filter paper test disks in small disposable petri dishes. These conditions of maintenance were the optimum for the lice off the human head. These head lice were then randomly distributed to petri dishes containing the control or impregnated disks and their activity was monitored by inspection over a four hour period. Since the portable incubator was designed to function either from the mains or a 12 volt source (cigarette lighter outlet in a car) the checking of lice activity was undertaken after leaving the school.
The disks, 5 cm in diameter, are paper, Whatman No. 1 Control paper disks were prepared by dipping papers into isopropanol and allowed to dry. Paper disks were prepared by dipping the paper into the solution of insecticide and allowed it to dry. Solutions used with the paper disks were 0.5% malathion in isopropanol, OVIDE® (malathion 0.5%) lotion, or Composition II disclosed herein. The dried paper disks were then stored overnight in air tight containers before using them the next day.
In the two subsequent tests, filter paper test disks were also used.
Values are given as percentage activity of the lice, 100 being all alive, 0 being all dead.

head lice = experiment: Viability of head lice on filter paper (Example 2); assay type: in vivo, head lice (Pediculus capitis)
Method: The viability of head lice was tested on filter paper under conditions as described in Example 1.

Q: Which “Solubility in Water” value [1] does the source give for `c1ccc2c(c1)CCCC2` [1,2,3,4-tetrahydronaphthalene] here?
A: < 0.01 % weight

Q: And the “symptoms observed with acute exposures in humans” value (“symptoms observed” below) [2]?
A: transient liver damage; production of green-gray urine; CNS excitant at low concentration; depressant at high concentration; nephrotoxic (renal system damage); cataracts; liver and kidney damage; and cytotoxic to ascites cells in culture during short-term mutagenicity testing

Q: Which “symptoms observed” value [2] does the source give for `CC1=CCC(O)(C(C)C)CC1` (stereo not drawn) [1-terpinen-4-ol, 1-methyl-4-isopropyl-delta-cyclohexene-4-ol] here?
A: CNS depression; cyanosis in extremities; increased urine volume; anti-microbial activity (α-terpineol does not have this activity); and greatly decreased allergic contact eczema compared to dipentene

Q: Which “symptoms observed” value [2] does the source give for `C=C(C)C1CC=C(C)CC1` (stereo not drawn) [Dipentene, 1-methyl-4-(1-methylethenyl)cyclohexene] here?
A: increased bile flow; hypothermia; increased cytochrome P450 content; hematuria (blood in urine); albuminuria (serum globulin in urine); tachycardia (rapid heart rate); increased allergic contact eczema; and no CNS involvement

Q: And the “metabolic conversion to α-terpineol or 1-terpinen-4-ol” value [3]?
A: not metabolically converted to either α-terpineol or to 1-terpinen-4-ol

Q: For `CCOC(=O)CC(SP(=S)(OC)OC)C(=O)OCC` (stereo not drawn) [Malathion, [(dimethoxyphosphinothioyl)thio]butanedioic acid diethyl ester], which “percentage activity of the lice, 100 being all alive, 0 being all dead” value (shortened to “percentage activity of the lice”) ([4]; Time 0 mins) is on record?
A: 100%

Q: And the “percentage activity of the lice” value ([4]; Time 1 mins)?
A: 100%

Q: What about the “percentage activity of the lice” value ([4]; Time 5 mins) of the same molecule?
A: 100%

Q: What about the “percentage activity of the lice” value ([4]; Time 10 mins) of the same molecule?
A: 100%

Q: What about the “percentage activity of the lice” value ([4]; Time 20 mins) of the same molecule?
A: 100%

Q: What about the “percentage activity of the lice” value ([4]; Time 30 mins) of the same molecule?
A: 100%

Q: And the “percentage activity of the lice” value ([4]; Time 60 mins)?
A: 100%

Q: What about the “percentage activity of the lice” value ([4]; Time 90 mins) of the same molecule?
A: 90%

Q: And the “percentage activity of the lice” value ([4]; Time 120 mins)?
A: 80%

Q: And the “percentage activity of the lice” value ([4]; Time 180 mins)?
A: 60%

Q: And the “percentage activity of the lice” value ([4]; Time 240 mins)?
A: 50%

Q: What about the lice killed ([4]; after about 4 hours) of the same molecule?
A: approximately 50%

Q: And the “Percent of Lice Still Alive” value (head lice; After 1 minute)?
A: 100%

Q: What about the “Percent of Lice Still Alive” value (head lice; After 5 minutes) of the same molecule?
A: 100%

Q: And the “Percent of Lice Still Alive” value (head lice; After 10 minutes)?
A: 100%

Q: What about the “Percent of Lice Still Alive” value (head lice; After 20 minutes) of the same molecule?
A: 100%

Q: And the “Percent of Lice Still Alive” value (head lice; After 30 minutes)?
A: 100%

Q: And the “Percent of Lice Still Alive” value (head lice; After 60 minutes)?
A: 100%

Q: And the “Percent of Lice Still Alive” value (head lice; After Minutes: None)?
A: 100%
